# Active and inactive are the calls of the source.
# What was measured:
# [1] = molecular target: T1, Histamine H4 receptor (Homo sapiens, UniProt Q9H3N8); assay: Displacement of [3H]-histamine from recombinant human H4 receptor expressed in Sf9 cell membranes co-expressing Galphai2/Gbeta1gamma2
# [2] = system: Rattus norvegicus; assay: Anti-inflammatory activity in Wistar (Krf:(WI) WU) rat model of carrageenan-induced paw edema assessed as hind paw volume at 25 mg/kg, ip administered as single dose prior to carrageenan challenge and measured after 3 hrs by plethysmometer (reference value: 130%); assay type: functional
# [3] = system: Rattus norvegicus; assay: Anti-inflammatory activity in Wistar (Krf:(WI) WU) rat model of carrageenan-induced thermal hyperalgesia assessed as paw withdrawal latency time at 25 mg/kg, ip administered as single dose prior to carrageenan challenge and measured after 2 hrs by plantar test (reference value: 4.03 +/- 0.7 s); assay type: functional
# [4] = system: Rattus norvegicus; assay: Anti-inflammatory activity in Wistar (Krf:(WI) WU) rat model of carrageenan-induced mechanical hyperalgesia assessed as increase in paw withdrawal threshold at 25 mg/kg, ip administered as single dose prior to carrageenan challenge and measured after 3 hrs; assay type: functional, organism-based
# [5] = system: Rattus norvegicus; assay: Anti-inflammatory activity in Wistar (Krf:(WI) WU) rat model of carrageenan-induced paw edema assessed as hind paw volume at 25 mg/kg, ip administered as single dose prior to carrageenan challenge and measured after 2 hrs by plethysmometer (reference value: 103%); assay type: functional
# [6] = system: Mus musculus; assay: Antinociceptive activity in formalin-induced nociception pain Albino Swiss CD-1 mouse model assessed as reduction in time spent licking or biting formalin injected right hind paw in early phase at 25 mg/kg, ip pretreated followed by formalin injection and measured up to 5 mins; assay type: functional, organism-based
# [7] = system: Mus musculus; assay: Antinociceptive activity in formalin-induced nociception pain Albino Swiss CD-1 mouse model assessed as reduction in time spent licking or biting formalin injected right hind paw in inflammatory phase at 25 mg/kg, ip pretreated followed by formalin injection and measured after 15 to 30 mins relative to control; assay type: functional; design: scale not given: the % may be the effect or the level left
# [8] = system: Rattus norvegicus; assay: Anti-inflammatory activity in Wistar (Krf:(WI) WU) rat model of carrageenan-induced paw edema assessed as hind paw volume at 25 mg/kg, ip administered as single dose prior to carrageenan challenge and measured after 1 hr by plethysmometer (reference value: 49%); assay type: functional
# [9] = system: Rattus norvegicus; assay: Anti-inflammatory activity in Wistar (Krf:(WI) WU) rat model of carrageenan-induced thermal hyperalgesia assessed as paw withdrawal latency time at 25 mg/kg, ip administered as single dose prior to carrageenan challenge and measured after 1 hr by plantar test (reference value: 4.79 +/- 0.99 s); assay type: functional
# [10] = molecular target: T1, Histamine H4 receptor; assay: Agonist activity at recombinant human H4 receptor expressed in CHOK1 cells co-expressing Galpha16/aequorin assessed as increase in intracellular calcium flux incubated for 1 hr measured for 30 secs in presence of coelenterazine by luminescence assay; assay type: functional, cell-based
# [11] = molecular target: T1, Histamine H4 receptor; assay: Antagonist activity at recombinant human H4 receptor expressed in CHOK1 cells co-expressing Galpha16/aequorin assessed as inhibition of histamine-induced intracellular calcium flux preincubated for 30 mins followed by histamine addition and measured for 30 secs in presence of coelenterazine by luminescence assay; assay type: functional, cell-based
# [12] = molecular target: T2, Muscarinic acetylcholine receptor M3 (Cavia porcellus, UniProt Q8VH26); assay: Agonist activity at muscarinic M3 receptor in guinea-pig ileum assessed as induction of contractions after 15 mins; assay type: tissue-based; settings: 0.25 h
# [13] = system: Rattus norvegicus; assay: Anti-inflammatory activity in Wistar (Krf:(WI) WU) rat model of carrageenan-induced paw edema assessed as hind paw volume at 50 mg/kg, ip administered as single dose prior to carrageenan challenge and measured after 3 hrs by plethysmometer (reference value: 130%); assay type: functional
# [14] = system: Rattus norvegicus; assay: Anti-inflammatory activity in Wistar (Krf:(WI) WU) rat model of carrageenan-induced paw edema assessed as hind paw volume at 50 mg/kg, ip administered as single dose prior to carrageenan challenge and measured after 2 hrs by plethysmometer (reference value: 103%); assay type: functional
# [15] = system: Mus musculus; assay: Antinociceptive activity in ip dosed formalin-induced nociception pain Albino Swiss CD-1 mouse model assessed as reduction in time spent licking or biting formalin injected right hind paw in inflammatory phase pretreated followed by formalin injection and measured after 15 to 30 mins; assay type: functional; settings: Swiss CD-1, ip
# [16] = system: Rattus norvegicus; assay: Anti-inflammatory activity in Wistar (Krf:(WI) WU) rat model of carrageenan-induced paw edema assessed as reduction in hind paw volume administered as single ip dose prior to carrageenan challenge and measured after 1 to 3 hrs by plethysmometer; assay type: functional, organism-based
# [17] = system: Rattus norvegicus; assay: Anti-inflammatory activity in Wistar (Krf:(WI) WU) rat model of carrageenan-induced thermal hyperalgesia assessed as paw withdrawal latency time at 25 mg/kg, ip administered as single dose prior to carrageenan challenge and measured after 3 hrs by plantar test (reference value: 3.03 +/- 0.4 s); assay type: functional
# [18] = molecular target: Histamine H1 receptor (Cavia porcellus) (UniProt P31389); assay: Agonist activity at histamine H1 receptor in guinea-pig ileum assessed as induction of contractions after 15 mins; assay type: tissue-based
# [19] = Neurotoxicity in Albino Swiss CD-1 mouse assessed as motor impairment at 25 to 75 mg/kg, ip treated 30 mins prior to test by rotarod test; assay type: toxicity, organism-based; settings: in vivo, 0.5 h
# [20] = system: Rattus norvegicus; assay: Anti-inflammatory activity in Wistar (Krf:(WI) WU) rat model of carrageenan-induced paw edema assessed as hind paw volume at 12.5 mg/kg, ip administered as single dose prior to carrageenan challenge and measured after 1 hr by plethysmometer (reference value: 49%); assay type: functional
# [21] = system: Mus musculus; assay: Effect on spontaneous locomotor activity in Albino Swiss CD-1 mouse assessed as change in number of light beam crossings at 25 to 50 mg/kg, ip treated prior to test and measured for next 30 mins; assay type: ADME, organism-based; settings: in vivo, 0.5 h
# [22] = system: Rattus norvegicus; assay: Anti-inflammatory activity in Wistar (Krf:(WI) WU) rat model of carrageenan-induced paw edema assessed as hind paw volume at 50 mg/kg, ip administered as single dose prior to carrageenan challenge and measured after 1 hr by plethysmometer (reference value: 49%); assay type: functional
# [23] = molecular target: T1, Histamine H4 receptor; settings: Sf9
# [24] = molecular target: T2, Muscarinic acetylcholine receptor M3; assay: Antagonist activity at muscarinic M3 receptor in guinea-pig ileum assessed as inhibition of carbachol-induced contractions after 15 mins; assay type: tissue-based; settings: read-out: pA2 (converted)
# [25] = system: Rattus norvegicus; assay: Anti-inflammatory activity in Wistar (Krf:(WI) WU) rat model of carrageenan-induced mechanical hyperalgesia assessed as increase in paw withdrawal threshold at 12.5 to 50 mg/kg, ip administered as single dose prior to carrageenan challenge and measured after 3 hrs; assay type: functional, organism-based
# [26] = molecular target: T1, Histamine H4 receptor; assay: Agonist activity at recombinant human H4 receptor expressed in Sf9 cell membranes co-expressing Galphai2/Gbeta1gamma2 measured after 1 hr in presence of [35S]GTPgammaS by liquid scintillation counting method; assay type: functional
# [27] = molecular target: Histamine H1 receptor (Cavia porcellus, UniProt P31389); assay: Antagonist activity at histamine H1 receptor in guinea-pig ileum assessed as inhibition of histamine-induced contractions after 15 mins; assay type: tissue-based; settings: read-out: pA2 (converted)
# [28] = system: Rattus norvegicus; assay: Anti-inflammatory activity in Wistar (Krf:(WI) WU) rat model of carrageenan-induced paw edema assessed as hind paw volume at 12.5 mg/kg, ip administered as single dose prior to carrageenan challenge and measured after 2 hrs by plethysmometer (reference value: 103%); assay type: functional
# [29] = system: Mus musculus; assay: Antinociceptive activity in formalin-induced nociception pain Albino Swiss CD-1 mouse model assessed as reduction in time spent licking or biting formalin injected right hind paw in early phase at 75 mg/kg, ip pretreated followed by formalin injection and measured up to 5 mins; assay type: functional, organism-based
# [30] = system: Mus musculus; assay: Effect on spontaneous locomotor activity in Albino Swiss CD-1 mouse assessed as decrease in number of light beam crossings at 75 mg/kg, ip treated prior to test and measured for next 30 mins relative to control; assay type: ADME, organism-based; design: scale not given: the % may be the effect or the level left; settings: in vivo, 0.5 h
# [31] = system: Mus musculus; assay: Antinociceptive activity in formalin-induced nociception pain Albino Swiss CD-1 mouse model assessed as reduction in time spent licking or biting formalin injected right hind paw in inflammatory phase at 50 mg/kg, ip pretreated followed by formalin injection and measured after 15 to 30 mins relative to control; assay type: functional; design: scale not given: the % may be the effect or the level left
# [32] = system: Rattus norvegicus; assay: Anti-inflammatory activity in Wistar (Krf:(WI) WU) rat model of carrageenan-induced thermal hyperalgesia assessed as paw withdrawal latency time at 50 mg/kg, ip administered as single dose prior to carrageenan challenge and measured after 3 hrs by plantar test (reference value: 3.03 +/- 0.4 s); assay type: functional
# [33] = system: Rattus norvegicus; assay: Anti-inflammatory activity in Wistar (Krf:(WI) WU) rat model of carrageenan-induced thermal hyperalgesia assessed as paw withdrawal latency time at 50 mg/kg, ip administered as single dose prior to carrageenan challenge and measured after 1 hr by plantar test (reference value: 4.79 +/- 0.99 s); assay type: functional
# [34] = system: Rattus norvegicus; assay: Anti-inflammatory activity in Wistar (Krf:(WI) WU) rat model of carrageenan-induced paw edema assessed as hind paw volume at 12.5 mg/kg, ip administered as single dose prior to carrageenan challenge and measured after 3 hrs by plethysmometer (reference value: 130%); assay type: functional
# [35] = system: Rattus norvegicus; assay: Anti-inflammatory activity in Wistar (Krf:(WI) WU) rat model of carrageenan-induced thermal hyperalgesia assessed as paw withdrawal latency time at 50 mg/kg, ip administered as single dose prior to carrageenan challenge and measured after 2 hrs by plantar test (reference value: 4.03 +/- 0.7 s); assay type: functional
# T1 sequence (Q9H3N8 whole entry): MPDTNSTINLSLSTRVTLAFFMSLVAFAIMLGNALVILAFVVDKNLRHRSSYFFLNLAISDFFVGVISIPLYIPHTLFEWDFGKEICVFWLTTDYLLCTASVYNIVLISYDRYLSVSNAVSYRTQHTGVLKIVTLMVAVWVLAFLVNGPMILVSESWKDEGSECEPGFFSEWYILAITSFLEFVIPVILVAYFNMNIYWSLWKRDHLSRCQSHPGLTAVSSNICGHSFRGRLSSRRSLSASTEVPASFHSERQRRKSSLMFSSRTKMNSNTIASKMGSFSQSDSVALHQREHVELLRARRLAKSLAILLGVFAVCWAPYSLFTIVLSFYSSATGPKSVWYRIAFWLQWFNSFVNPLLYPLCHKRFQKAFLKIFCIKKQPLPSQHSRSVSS
# T2 sequence (Q8VH26 whole entry): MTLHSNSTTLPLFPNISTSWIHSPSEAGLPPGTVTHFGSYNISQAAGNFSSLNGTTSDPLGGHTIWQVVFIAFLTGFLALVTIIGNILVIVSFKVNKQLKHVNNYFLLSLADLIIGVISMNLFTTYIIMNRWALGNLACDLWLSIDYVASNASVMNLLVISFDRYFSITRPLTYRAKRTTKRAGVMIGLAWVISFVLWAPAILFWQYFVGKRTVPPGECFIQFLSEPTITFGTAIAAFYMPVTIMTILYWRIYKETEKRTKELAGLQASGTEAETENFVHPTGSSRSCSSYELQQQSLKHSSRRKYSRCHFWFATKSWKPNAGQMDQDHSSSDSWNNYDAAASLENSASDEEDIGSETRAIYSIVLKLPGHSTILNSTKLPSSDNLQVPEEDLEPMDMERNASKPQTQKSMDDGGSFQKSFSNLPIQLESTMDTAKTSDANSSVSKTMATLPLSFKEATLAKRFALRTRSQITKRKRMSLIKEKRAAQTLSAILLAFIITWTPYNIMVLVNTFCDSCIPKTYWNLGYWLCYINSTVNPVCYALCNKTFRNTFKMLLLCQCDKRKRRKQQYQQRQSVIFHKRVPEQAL
# Chain of Histamine H1 receptor (Cavia porcellus) (P31389 whole entry): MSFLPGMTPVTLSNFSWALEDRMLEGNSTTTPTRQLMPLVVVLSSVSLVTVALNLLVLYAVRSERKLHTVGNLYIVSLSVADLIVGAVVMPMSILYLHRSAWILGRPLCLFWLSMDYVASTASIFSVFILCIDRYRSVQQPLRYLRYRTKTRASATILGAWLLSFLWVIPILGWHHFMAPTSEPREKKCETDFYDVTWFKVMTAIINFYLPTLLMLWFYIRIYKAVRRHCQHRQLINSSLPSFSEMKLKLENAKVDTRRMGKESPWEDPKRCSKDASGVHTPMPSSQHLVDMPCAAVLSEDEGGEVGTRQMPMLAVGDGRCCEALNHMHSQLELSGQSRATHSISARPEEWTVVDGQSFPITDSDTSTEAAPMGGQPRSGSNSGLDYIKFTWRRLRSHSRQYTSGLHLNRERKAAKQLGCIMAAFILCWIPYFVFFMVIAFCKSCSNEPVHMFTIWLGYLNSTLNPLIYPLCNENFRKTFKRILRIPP
# Chain of Histamine H1 receptor (P31389 whole entry): as above
compound,measurement,setting,value
COCc1nc(N)nc(N2CCN(C)CC2)n1,Ki,[1],> 10000 nM
Cc1nc(N)nc(N2CCN(C)CC2)n1,Ki,[1],2660 nM
CC(C)c1nc(N)nc(N2CCN(C)CC2)n1,Ki,[1],277 nM
CCc1nc(N)nc(N2CCN(C)CC2)n1,Ki,[1],812 nM
CN1CCN(c2nc(N)nc(CCCC3CCCCC3)n2)CC1,Ki,[1],> 10000 nM
CN1CCN(C(=O)c2cc3cc(Cl)ccc3[nH]2)CC1 [JNJ-7777120],Activity,[2],63.66%
same,Time,[3],8.39 s
same,Activity,[4],Active
same,Activity,[5],47.4%
same,Activity,[6],inactive
same,Activity,[7],60.68%
same,Activity,[8],22.11%
same,Time,[9],9.14 s
CCCc1nc(N)nc(N2CCN(C)CC2)n1,Activity,[10],inactive
same,Ki,[1],185 nM
same,IC50,[11],265 nM
CN1CCN(c2nc(N)nc(CC3CCCCC3)n2)CC1,Activity,[12],Not Active
same,Activity,[13],57.37%
same,Activity,[2],84.3%
same,Activity,[14],21.73%
same,ED50,[15],54.8 mg/kg
same,Activity,[16],Dose-dependent effect
same,Time,[17],7.06 s
same,Time,[3],9.78 s
same,Activity,[18],inactive
same,Activity,[5],41.3%
same,Activity,[19],Non-Toxic
same,Activity,[20],25.47%
same,Activity,[21],Non-Toxic
same,Activity,[22],8.69%
same,Activity,[10],inactive
same,pKb,[23],6.67 to 6.7
same,Ki,[1],160 nM
same,Kb,[24],2040 nM
same,Activity,[25],Active
same,Activity,[26],inactive
same,Kb,[27],1230 nM
same,Activity,[28],53.77%
same,Activity,[29],Active
same,Activity,[8],19.56%
same,Activity,[30],23.84%
same,Activity,[31],59.83%
same,Time,[32],9.03 s
same,Time,[33],9.43 s
same,Activity,[34],83.96%
same,Time,[9],<=10.49 s
same,IC50,[11],32 nM
same,Time,[35],10.05 s
CCC(C)c1nc(N)nc(N2CCN(C)CC2)n1 (stereo not given),Ki,[1],725 nM
CC(C)=Cc1nc(N)nc(N2CCN(C)CC2)n1,Ki,[1],470 nM
CC(C)Cc1nc(N)nc(N2CCN(C)CC2)n1,Ki,[1],529 nM
CN1CCN(c2nc(N)nc(CC(C)(C)C)n2)CC1,Ki,[1],247 nM
CN1CCN(c2nc(N)nc(CCC3CCCCC3)n2)CC1,Ki,[1],2850 nM
CN1CCN(c2nc(N)nc(C(C)(C)C)n2)CC1,Ki,[1],1080 nM
CCC(CC)c1nc(N)nc(N2CCN(C)CC2)n1,Ki,[1],1330 nM

# Source: ChEMBL document CHEMBL4480422, “Alkyl derivatives of 1,3,5-triazine as histamine H4 receptor ligands” (Bioorg Med Chem, 2019)
